Data as given in patent US20230210999A1, “TARGETED PROTEASE DEGRADATION (TED) PLATFORM” (EUBULUS BIOTHERAPEUTICS INC., priority 2020, published 2023).

Key:
MV4;11 cells = assay: Cell proliferation experiment (Alamar blue, 72 h), MV4;11; format: cell-based, human; details: Homo sapiens, MV4-11, 72 h, MV4;11 cells, 72 h; read-out: Inhibitory activity IC50 of tested compounds on MV4;11 cells
Method in brief: (§1)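 IC50 values derive from a four-parameter logistic fit of Alamar blue fluorescence. Cells in logarithmic growth, plated in 96-well format, are treated for 72 h with compound diluted 5-fold serially, two wells per concentration.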

Daudi cells = assay: Cell proliferation experiment, Daudi; format: cell-based, human; details: Homo sapiens, Daudi, 72 h, Daudi cells, 72 h; read-out: Inhibitory activity IC50 of tested compounds on Daudi cells
Method in brief: as §1

NCIH82 cells = assay: Cell proliferation experiment, NCI-H82; format: cell-based, human; details: Homo sapiens, NCI-H82, 72 h, NCIH82 cells, 72 h; read-out: Inhibitory activity IC50 of tested compounds on NCIH82 cells
Method in brief: as §1

HT-29 cells = assay: Cell proliferation experiment, HT-29; format: cell-based; details: Homo sapiens; HT-29 cells, 72 h; read-out: Inhibitory activity IC50 of tested compounds on HT-29 cells
Protocol: (§2) Reagents: RPMI-1640 medium, McCoy's 5A medium, IMDM medium, MEM medium, L-15 medium, fetal bovine serum. Penicillin-Streptomycin double antibody, trypsin, etc., 2-mercaptoethanol, NEAA, pyruvate, etc.
(§3) The cells were cultured in conventional ways, and the cells should be passed at least 2 generations before plating. Cells at the logarithmic growth phase were collected, prepared into single cell suspensions and counted. The concentration of cells was adjusted to the desired concentration, and cells were inoculated into a 96-well cell culture plate at 100 μl per well. 100 μL of complete medium of the test compound were added to each well, set up 2 duplicate wells for each concentration, and diluted with a 5-fold gradient, and continued to culture for 72 h. All cells were subjected to IC50 test for corresponding samples. The experimental results are shown in Test Example 4.
(§4) The fluorescence intensity of each well was detected using the Alarm blue method, and IC50 was calculated.
(§5) IC50 was calculated according to the following formula:
(§6) Y=Max+(Min−Max)/[1+(X/IC50)×Slope]
(§7) wherein Min, Max and Slope represent the minimum, maximum and slope respectively.

U-87MG cells = assay: Cell proliferation experiment, U-87MG; format: cell-based; details: Homo sapiens; U-87MG cells, 72 h; read-out: Inhibitory activity IC50 of tested compounds on U-87MG cells
Protocol: as §2, §3, §4, §5, §6, §7

HUVEC cells = assay: Cell proliferation experiment, HUVEC; format: cell-based; details: Homo sapiens, 72 h, read-out: Inhibitory activity IC50 of tested compounds on HUVEC cells
Protocol: as §2, §3, §4, §5, §6, §7

Compound	IC50 (MV4;11 cells)	IC50 (Daudi cells)	IC50 (NCIH82 cells)	IC50 (HT-29 cells)	IC50 (U-87MG cells)	IC50 (HUVEC cells)
CC[C@@H]1C(=O)N(C)c2cnc(Nc3ccc(C(=O)NC4CCN(CCCCN(C)CCC#Cc5cccc6c5CN(C5CCC(=O)NC5=O)C6=O)CC4)cc3OC)nc2N1C1CCCC1 (some centres unmarked) [Compound 910]	≤ 100 nM	≤ 100 nM	≤ 1000 nM	≤ 300 nM	100 to 500 nM	
CC[C@@H]1C(=O)N(C)c2cnc(Nc3ccc(C(=O)NC4CCN(CCCN(C)CCCOCCCC#Cc5cccc6c5CN(C5CCC(=O)NC5=O)C6=O)CC4)cc3OC)nc2N1C1CCCC1 (some centres unmarked) [Compound 911]	≤ 100 nM	≤ 100 nM	≤ 1000 nM	300 to 1000 nM	≤ 100 nM	
CC[C@@H]1C(=O)N(C)c2cnc(Nc3ccc(C(=O)NC4CCN(CCCOCCCN(C)CCC#Cc5cccc6c5CN(C5CCC(=O)NC5=O)C6=O)CC4)cc3OC)nc2N1C1CCCC1 (some centres unmarked) [Compound 914]	≤ 100 nM	≤ 100 nM	≤ 1000 nM	≤ 300 nM	100 to 500 nM	
CC[C@@H]1C(=O)N(C)c2cnc(Nc3ccc(C(=O)NC4CCN(CCOCCCNCCCC#Cc5cccc6c5CN(C5CCC(=O)NC5=O)C6=O)CC4)cc3OC)nc2N1C1CCCC1 (some centres unmarked) [Compound 915]	≤ 100 nM	≤ 100 nM	≤ 1000 nM	300 to 1000 nM	100 to 500 nM	
CC[C@@H]1C(=O)N(C)c2cnc(Nc3ccc(C(=O)NC4CCN(CCCOCCCNCCCC#Cc5cccc6c5CN(C5CCC(=O)NC5=O)C6=O)CC4)cc3OC)nc2N1C1CCCC1 (some centres unmarked) [Compound 917]	≤ 100 nM	≤ 100 nM	≤ 1000 nM	300 to 1000 nM	100 to 500 nM	
CC[C@@H]1C(=O)N(C)c2cnc(Nc3ccc(C(=O)NC4CCN(CCCOCCNCCCC#Cc5cccc6c5CN(C5CCC(=O)NC5=O)C6=O)CC4)cc3OC)nc2N1C1CCCC1 (some centres unmarked) [Compound 918]	≤ 100 nM	≤ 100 nM	≤ 1000 nM	300 to 1000 nM	100 to 500 nM	
CC[C@@H]1C(=O)N(C)c2cnc(Nc3ccc(C(=O)NC4CCN(CCCOCCCN(C)CCCC#Cc5cccc6c5CN(C5CCC(=O)NC5=O)C6=O)CC4)cc3OC)nc2N1C1CCCC1 (some centres unmarked) [Compound 919]	≤ 100 nM	≤ 100 nM	≤ 1000 nM	300 to 1000 nM	100 to 500 nM	≤ 1000 nM
CC[C@@H]1C(=O)N(C)c2cnc(Nc3ccc(C(=O)NC4CCN(CCCCNCCCC#Cc5cccc6c5CN(C5CCC(=O)NC5=O)C6=O)CC4)cc3OC)nc2N1C1CCCC1 (some centres unmarked) [Compound 922]	≤ 100 nM	100 to 1000 nM	≤ 1000 nM	300 to 1000 nM	100 to 500 nM	≤ 1000 nM
CC[C@@H]1C(=O)N(C)c2cnc(Nc3ccc(C(=O)NC4CCN(CCCCN(C)CCCC#Cc5cccc6c5CN(C5CCC(=O)NC5=O)C6=O)CC4)cc3OC)nc2N1C1CCCC1 (some centres unmarked) [Compound 923]	≤ 100 nM	≤ 100 nM	≤ 1000 nM	≤ 300 nM	100 to 500 nM	≤ 1000 nM
CC[C@@H]1C(=O)N(C)c2cnc(Nc3ccc(C(=O)NC4CCC(N5CCN(CCCC(=O)NC#Cc6cccc7c6CN(C6CCC(=O)NC6=O)C7=O)CC5)CC4)cc3OC)nc2N1C1CCCC1 (some centres unmarked) [Compound 926]	≤ 100 nM	≤ 100 nM	≤ 1000 nM	300 to 1000 nM	100 to 500 nM	≤ 1000 nM
CC[C@@H]1C(=O)N(C)c2cnc(Nc3ccc(C(=O)NC4CCN(C5CN(CCC#Cc6cccc7c6CN(C6CCC(=O)NC6=O)C7=O)C5)CC4)cc3OC)nc2N1C1CCCC1 (some centres unmarked) [Compound 928]	≤ 100 nM	≤ 100 nM	≤ 1000 nM	≤ 300 nM	≤ 100 nM	≤ 1000 nM
CC[C@@H]1C(=O)N(C)c2cnc(Nc3ccc(C(=O)NC4CN(CCCOCCCNCCC#Cc5cccc6c5CN(C5CCC(=O)NC5=O)C6=O)C4)cc3OC)nc2N1C1CCCC1 (some centres unmarked) [Compound 931]	≤ 100 nM	100 to 1000 nM	≤ 1000 nM	> 1000 nM	500 to 1000 nM	
CC[C@@H]1C(=O)N(C)c2cnc(Nc3ccc(C(=O)NC4CCN(CCN(C)CCCOCCC#Cc5cccc6c5CN(C5CCC(=O)NC5=O)C6=O)CC4)cc3OC)nc2N1C1CCCC1 (some centres unmarked) [Compound 932]	≤ 100 nM	≤ 100 nM	≤ 1000 nM	≤ 300 nM	≤ 100 nM	≤ 1000 nM
CC[C@@H]1C(=O)N(C)c2cnc(Nc3ccc(C(=O)NC4CCC(N5CCN(CCCNCCC#Cc6cccc7c6CN(C6CCC(=O)NC6=O)C7=O)CC5)CC4)cc3OC)nc2N1C1CCCC1 (some centres unmarked) [Compound 933]	≤ 100 nM	100 to 1000 nM	≤ 1000 nM	300 to 1000 nM	100 to 500 nM	≤ 1000 nM

More lines, main results first:

IC50 (MV4;11 cells)	IC50 (Daudi cells)	IC50 (NCIH82 cells)	IC50 (HT-29 cells)	IC50 (U-87MG cells)	Compound	IC50 (HUVEC cells)
≤ 100 nM	≤ 100 nM	≤ 1000 nM	300 to 1000 nM	≤ 100 nM	CC[C@@H]1C(=O)N(C)c2cnc(Nc3ccc(C(=O)NCCCOCCCNCCC#Cc4cccc5c4CN(C4CCC(=O)NC4=O)C5=O)cc3OC)nc2N1C1CCCC1 (some centres unmarked) [Compound 912]	
≤ 100 nM	≤ 100 nM	≤ 1000 nM	300 to 1000 nM	≤ 100 nM	CC[C@@H]1C(=O)N(C)c2cnc(Nc3ccc(C(=O)NCCCOCCCN(C)CCC#Cc4cccc5c4CN(C4CCC(=O)NC4=O)C5=O)cc3OC)nc2N1C1CCCC1 (some centres unmarked) [Compound 913]	
≤ 100 nM	≤ 100 nM	≤ 1000 nM	≤ 300 nM	100 to 500 nM	CC[C@@H]1C(=O)N(C)c2cnc(Nc3ccc(C(=O)NC4CCN(CCOCCCN(C)CCC#Cc5cccc6c5CN(C5CCC(=O)NC5=O)C6=O)CC4)cc3OC)nc2N1C1CCCC1 (some centres unmarked) [Compound 916]	
≤ 100 nM	≤ 100 nM	≤ 1000 nM	300 to 1000 nM	≤ 100 nM	CC[C@@H]1C(=O)N(C)c2cnc(Nc3ccc(C(=O)NCCCOCCOCCN(C)CCC#Cc4cccc5c4CN(C4CCC(=O)NC4=O)C5=O)cc3OC)nc2N1C1CCCC1 (some centres unmarked) [Compound 920]	≤ 1000 nM
≤ 100 nM	100 to 1000 nM	> 1000 nM	> 1000 nM	100 to 500 nM	CC[C@@H]1C(=O)N(C)c2cnc(Nc3ccc(C(=O)NCCCNCCCOCCC#Cc4cccc5c4CN(C4CCC(=O)NC4=O)C5=O)cc3OC)nc2N1C1CCCC1 (some centres unmarked) [Compound 921]	≤ 1000 nM
≤ 100 nM	≤ 100 nM	≤ 1000 nM	≤ 300 nM	100 to 500 nM	CC[C@@H]1C(=O)N(C)c2cnc(Nc3ccc(C(=O)NC4CCN(CCCOCCN(C)CCCC#Cc5cccc6c5CN(C5CCC(=O)NC5=O)C6=O)CC4)cc3OC)nc2N1C1CCCC1 (some centres unmarked) [Compound 924]	≤ 1000 nM
≤ 100 nM	≤ 100 nM	≤ 1000 nM	≤ 300 nM	≤ 100 nM	CC[C@@H]1C(=O)N(C)c2cnc(Nc3ccc(C(=O)NCCCOCCN(C)CCC#Cc4cccc5c4CN(C4CCC(=O)NC4=O)C5=O)cc3OC)nc2N1C1CCCC1 (some centres unmarked) [Compound 927]	≤ 1000 nM
≤ 100 nM	≤ 100 nM	≤ 1000 nM	≤ 300 nM	≤ 100 nM	CC[C@@H]1C(=O)N(C)c2cnc(Nc3ccc(C(=O)NCCCOCCCOCCN(C)CCC#Cc4cccc5c4CN(C4CCC(=O)NC4=O)C5=O)cc3OC)nc2N1C1CCCC1 (some centres unmarked) [Compound 930]	≤ 1000 nM
